Assay results published in US20230150951A1, “2,5- OR 2,6-DISUBSTITUTED HYDROQUINONE DERIVATIVES WITH AT LEAST ONE CARBOXY, SULFO OR AMIDO GROUP USEFUL AS MEDICAMENTS” (OM PHARMA SA, priority 2020, published 2023).

Molecular target: T1, VEGF-A (Homo sapiens, UniProt P15692)
T1 construct: purchased ProQinase GmbH
T1 sequence (P15692 27-191 isoform P15692-4): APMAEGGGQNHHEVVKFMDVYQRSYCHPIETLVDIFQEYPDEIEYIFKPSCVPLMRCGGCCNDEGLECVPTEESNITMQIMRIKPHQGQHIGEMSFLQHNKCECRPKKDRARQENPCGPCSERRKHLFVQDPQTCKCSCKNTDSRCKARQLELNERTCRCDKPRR
Experiment: VEGF-A induced sprouting of HUVEC, spheroid-based cellular angiogenesis assay
Format: cell-based
Settings: VEGF-A 25 ng/mL preincubated with compound, 24 h, read-out: VEGF-A1 IC50
In short: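 Spheroids of 400 HUVEC (passage 3–4), embedded in collagen gel, were stimulated with FGF-1, FGF-2 or VEGF-A (final 25 ng/mL) preincubated 30 min at 37°C with compound (final 1.56–100 μM).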

SMILES	IC50 [µM]
O=C(O)c1cc(O)c(C(=O)Nc2ccccc2C(=O)O)cc1O [Ia-001a, 4-(2-carboxyphenylaminocarbonyl)-2,5-dihydroxybenzoic acid]	7.3
O=C(O)Cc1cc(O)c(C(=O)Nc2c(C(=O)O)cccc2C(=O)O)cc1O [IIIa-013a, 2-(4-(carboxymethyl)-2,5-dihydroxybenzamido)isophthalic acid]	43
O=C(Nc1ccccc1-c1nnn[nH]1)c1cc(O)c(C(=O)Nc2ccccc2-c2nnn[nH]2)cc1O [Ic-001aTz2, N1,N4-bis(2-(1H-tetrazol-5-yl)phenyl)-2,5-dihydroxyterephthalamide]	45
COC(=O)c1cc(OC(C)=O)cc(CS(=O)(=O)Cc2cc(OC(C)=O)cc(C(=O)OC)c2OC(C)=O)c1OC(C)=O [IVc-059a-E2-A4]	25
O=C(O)c1cc(O)cc(CS(=O)(=O)Cc2cc(O)cc(C(=O)O)c2O)c1O [IVc-059a, 3-((2,5-Dihydroxy-3-carboxyphenyl)methylsulfonylmethyl)-2,5-dihydroxybenzoic acid]	12
O=C(O)c1cc(O)c(C(=O)Nc2ccc(-c3nnn[nH]3)cc2)cc1O [Ia-003a-Tz, 4-(4-(1H-tetrazol-5-yl)phenyl-aminocarbonyl)-2,5-dihydroxybenzoic acid]	13
O=C(O)c1cc(NC(=O)c2cc(O)c(C(=O)O)cc2O)cc(NC(=O)c2cc(O)c(C(=O)O)cc2O)c1 [Ib-010a, 3,5-bis(2,5-dihydroxy-4-carboxybenzoylamino)benzoic acid]	15
CC(=O)N(Cc1cc(O)c(C(=O)O)cc1O)Cc1cc(O)c(C(=O)O)cc1O [IIIc-057a, N,N-Bis(4-carboxy-2,5-dihydroxyphenylmethyl)acetamide]	38
O=C(O)c1cc(O)c(C(=O)Nc2ccccc2-c2nnn[nH]2)cc1O [Ia-001a-Tz, 4-(2-(1H-tetrazol-5-yl)phenyl-aminocarbonyl)-2,5-dihydroxybenzoic acid]	17
O=C(O)c1cc(O)cc(CSCc2cc(O)cc(C(=O)O)c2O)c1O [IVc-058a, 3-((2,5-Dihydroxy-3-carboxyphenyl)methylthiomethyl)-2,5-dihydroxybenzoic acid]	83
O=C(O)Cc1cc(O)c(C(=O)Nc2ccccc2-c2nnn[nH]2)cc1O [IIIa-001aTz]	12
O=C(O)c1cc(NC(=O)c2cc(O)c(C(=O)Nc3ccccc3-c3nnn[nH]3)cc2O)ccc1O [Ic-001a-Tz/004a, 5-(4-(2-(1H-tetrazol-5-yl)phenylaminocarbonyl)-2,5-dihydroxybenzamido)-2-hydroxy benzoic acid]	25
O=C(O)c1cc(O)c(C(=O)Nc2ccccc2S(=O)(=O)O)cc1O [Ia-001c, 2,5-dihydroxy-4-(2-sulfophenylaminocarbonyl)benzoic acid]	≥ 100
O=C(O)c1cc(NC(=O)c2cc(O)c(C(=O)O)cc2O)cc(C(=O)O)c1 [Ia-015a, 5-(4-carboxy-2,5-dihydroxybenzamido)isophthalic acid]	19
O=C(O)c1cc(O)c(CN(Cc2cc(O)c(C(=O)O)cc2O)Cc2cc(O)c(C(=O)O)cc2O)cc1O [IIIc-061a, Tris(4-carboxy-2,5-dihydroxyphenylmethyl)amine]	21
O=C(O)c1cc(NC(=O)c2cc(O)c(C(=O)Nc3ccc(O)c(C(=O)O)c3)cc2O)ccc1O [Ic-007a, 5-(4-(3-carboxy-4-hydroxyphenylaminocarbonyl)-2,5-dihydroxybenzamido)-2-hydroxy benzoic acid]	3.2
O=C(O)c1cc(O)ccc1NC(=O)c1cc(O)cc(C(=O)Nc2ccc(O)cc2C(=O)O)c1O [IIc-009a, 2-(3-(2-carboxy-4-hydroxyphenylaminocarbonyl)-2,5-dihydroxybenzamido)-5-hydroxyl benzoic acid]	182
O=C(O)c1ccccc1CNC(=O)c1cc(O)cc(C(=O)O)c1O [IIa-053a, 3-(2-Carboxyphenylmethylaminocarbonyl)-2,5-dihydroxybenzoic acid]	37
